Results: PMC7582918, “A short peptide of the C-terminal class Y helices of apolipoprotein A-I has preserved functions in cholesterol efflux and in vivo metabolic control” (Scientific Reports, 2020)

Columns and labels:
[1] = previously shown; cited from earlier work
Text: Circular dichroism (CD) spectroscopy (Fig. 2a) was next used to assay for peptide integrity and secondary structure. The helical content of the RG33 peptide in solution was based on the CD data and estimated to be on average 31%. This is higher than the helical content of the 190–243 ApoA-I peptide which was previously shown to be in the range of 17–21% alpha-helix[11]. A high helical content combined with an amphipathic arrangement of the helices is important for the lipid-binding function. Indeed, the binding of lipids induces formation of amphipathic helixes of the ApoA-I protein[23]. In li ...

J774 macrophages = conditions: previously described; cited from earlier work
Protocol: To analyze this, cultured J774 macrophages were loaded with isotope-labelled cholesterol, followed by incubation with RG33 (LF or LB) at specified concentrations for 2 h (Fig. 3a).

[2] = rHDL formation / solubilization of DMPC multilamellar vesicles, dynamic light scattering; conditions: 100 nm DMPC MLVs, 4 days at 24 °C, DLS
Protocol: 1,2-Dimyristoyl-sn-glycero-3-phosphocholine (DMPC; Avanti Polar Lipids) was formed into 100 nm multilamellar vesicles (MLV) via extrusion using the LiposoFast system (Avestin) as previously described. MLV were incubated with RG33 at indicated ratios for 4 days at 24 °C to form rHDL. The resulting particle sizes were measured by Dynamic Light Scattering using a Zetasizer APS (Malvern Instruments).
Figure 2 Peptide structure and lipid complex formation activity of RG33. (a) Circular dichroism spectroscopy of RG33 dissolved in PBS at 0.2 mg/ml. This spectrum represents the average of five measurements using five separate solutions. (b) Helical wheel analysis of residues 209 to 241 of the ApoA-I protein. One-letter code for amino acids is used and numbered 1 to 33 with start at residue 209. (c) rHDL particles were prepared by incubating the MLVs with RG33 peptide in the molar ratios noted at 24 °C for four days. Particle size distribution was analysed by DLS and frequency curves generated for RG33. Both MLVs alone (data on pure 100 nm MLVs is adapted from[15]) and lipid-free peptide are included as controls. GraphPad Prism (version 8.0) (www.graphpad.com) was used. Data represents five individual experiments.
As described above, the amphipathic organization of the RG33 peptide is expected to promote efficient lipid-binding. […]

[3] = Stability in mouse plasma (LC-MS/MS); type: in vitro ADME; conditions: mouse CD-1 plasma (heparin), incubation up to 90 min
Protocol: (§1) Mouse CD-1 plasma (heparin) was from Novakemi AB. Analysis was performed using LC–MS/MS, a Sciex QTRAP 6500 coupled to a Waters Acquity LC system with an attached HSS T3 2 × 50 mm column. A 5%-100% acetonitrile gradient and 0.1% formic acid was used as mobile phase.
(§2) A 33-mer peptide (RG33) that corresponds to the two Class Y helices (11 and 22 residues, respectively) of the C-terminal domain of ApoA-I (corresponding to regions 209–219 and 220–241 of ApoA-I, respectively) was synthesized and chemically modified at the termini for increased stability (Fig. 1a), and analyzed by SDS-PAGE (Fig. 1b; Suppl. Fig.). Such modifications are known to lead to loss of the terminal charges of the modified peptide with potential reduction in solubility. […] Moreover, the stability of the peptide was tested by incubation for up to 90 min in either PBS or human or mouse plasma followed by LC–MS analysis of the peptide in the complex mixture, or for longer time periods (up to 168 h at 5 °C or 22 °C) in PBS followed by LC-UV analysis of the pure peptide. […] The extent of degradation in plasma was assumed not to affect the in vitro and in vivo analyses made herein. Nevertheless, while not needed for the current study, further modifications aimed at prolonging the half-life of the RG33 peptide in plasma would be beneficial for therapeutic uses.
Figure 1 Peptide characterization for RG33. […]

[4] = Stability in PBS (LC-MS up to 90 min; LC-UV up to 168 h); type: physicochemical
Protocol: as §1, §2
Figure 1 Peptide characterization for RG33. (a) Full peptide sequence. (b) Peptide purity as shown by Tris/Tricine SDS PAGE visualized by coomassie staining, 5 μg/well. (c) Stability of native or refolded RG33 over time in phosphate buffer, human plasma or mouse plasma. GraphPad Prism (version 8.0) (www.graphpad.com) was used. TEXT PRINTED IN THE PICTURE: (a) RG33: MW (g/mol): 3790.42; Solubility: > 3.0 mg/ml

[5] = Stability in human plasma (LC-MS/MS); type: in vitro ADME; conditions: human plasma (citrate), pooled from four donors, incubation up to 90 min
Protocol: Peptide (lyophilized powder) produced by Red Glead AB (Lund, Sweden) was reconstituted as previously described. Peptide concentration was determined using a NanoDrop 2000c spectrophotometer (Thermo Scientific), and integrity was analysed by Tris-Tricine SDS-PAGE followed by Coomassie staining and by circular dichroism spectroscopy (CD). CD spectra were acquired on a Jasco J-810 spectropolarimeter equipped with a Jasco CDF-426S Peltier, set to 25 °C[18]. Samples were loaded into a 1 mm quartz cuvette and CD spectra acquired at 25 °C in the far-UV range 200–260 nm, with a 1 nm wavelength increment. Averages of five scans were baseline-subtracted (PBS buffer; 25 mM phosphate, 150 mM NaCl) and the alpha-helical content was calculated from the molar ellipticity at 222 nm as previously described[11],[19]. Human plasma (citrate) was from Blodcentralen at the Uppsala academic hospital and pooled from four healthy volunteer blood donors after giving informed consent for general research use. […]
A 33-mer peptide (RG33) that corresponds to the two Class Y helices (11 and 22 residues, respectively) of the C-terminal domain of ApoA-I (corresponding to regions 209–219 and 220–241 of ApoA-I, respectively) was synthesized and chemically modified at the termini for increased stability (Fig. 1a), and analyzed by SDS-PAGE (Fig. 1b; Suppl. Fig.). […]

[6] = Solubility of the peptide; type: physicochemical; conditions: peptide chemically modified at the termini
Text: as §2
Figure 1 Peptide characterization for RG33. (a) Full peptide sequence. (b) Peptide purity as shown by Tris/Tricine SDS PAGE visualized by coomassie staining, 5 μg/well. (c) Stability of native or refolded RG33 over time in phosphate buffer, human plasma or mouse plasma. GraphPad Prism (version 8.0) (www.graphpad.com) was used. […]

Row | Substance | Helical content (alpha-helix) [1] | Fold increase in Vmax, LB vs LF (J774 macrophages) | Solubilization of DMPC MLVs at 1:50 peptide-to-lipid molar ratio [2] | Stability in mouse plasma [3] | Stability in PBS, shorter incubation ([4]; PBS (phosphate buffer), incubation up to 90 min, LC-MS analysis) | Stability in PBS, longer storage at 5 °C ([4]; PBS, up to 168 h (a week) at 5 °C, LC-UV analysis of the pure peptide, data not shown) | Stability in PBS, longer storage at 22 °C ([4]; PBS, up to 168 h (a week) at 22 °C, LC-UV analysis of the pure peptide, data not shown) | Stability in human plasma [5] | Solubility [6]
1 | RG54: Peptide corresponding to amino acid residues 190–243 of ApoA-I protein (AEYHAKATEHLSTLSEKAKPALEDLRQGLLPVLESFKVSFLSALEEYTKKLNTQ; UniProt P02647 214-267, looked up, fragment) | 17–21% | twofold increase |  |  |  |  |  |  | 
2 | Ac-PALEDLRQGLLPVLESFKVSFLSALEEYTKKLN-NH2 [RG33] |  |  | only partial solubilization | some degradation | intact | intact | intact | some degradation | > 3000 µg/mL
